Measured values taken from patent US11072614B2, “Polymorphs of sepiapterin and salts thereof” (PTC Therapeutics MP, Inc., priority 2016, dated 2021).

Experiments:
Type in all cases: physicochemical
[1] = Storage stability study of solid forms, form change by XRD (Example 11)
Experimental: For X-ray powder diffraction analysis, a PANalytical Empyrean X-ray powder diffractometer was used. The parameters are as follows:
(§1) Form A and F samples were placed in chambers with silica gel to remove water (the relative humidity was measured to be ˜10% RH) at different temperatures. Form D samples were placed in chambers with water (relative humidity was estimated to be ˜100% RH) at different temperatures.
(§2) The HPLC purities and XRD patterns were obtained for each of Form A/F/D samples stored at various temperatures.

[2] = Physical form stability to grinding and sieving (XRD before and after)
Experimental: A sample of sepiapterin free base was obtained commercially. […] The sepiapterin sample contained particles with an average particle size over 100 μm. The XRD pattern was determined before and after grinding to reduce the particle size such that it passes through a 140 mesh screen. This polymorph of sepiapterin free base is referred to as Form A herein.

[3] = Storage stability study of solid forms, HPLC purity (Example 11)
Experimental: as §1, §2

[4] = Storage stability of polymorphs, HPLC sepiapterin and impurity profile (Example 12); design: Impurity RRT 1.06 / Impurity RRT 1.08 / Impurity RRT 1.17 / Impurity RRT 1.21 / Impurity RRT 1.25 / Impurity RRT 0.62 / Impurity RRT 0.89 / Impurity RRT 0.95 / Impurity RRT 0.60: unit not given here; details: for stability compared with polymorph A (in words): storage at RT, 35° C., 50° C., 1 w and 4 w
Experimental: Samples of sepiapterin free base polymorph Forms D, F, and A were stored at room temperature (RT), 35° C., and 50° C. The samples were analyzed by HPLC at 1 week and 4 week intervals. The HPLC parameters were as follows: [table]

[5] = 35° C., 100% RH, storage 1 week
[6] = 35° C., 100% RH, storage 4 weeks
[7] = 50° C., 100% RH, storage 1 week
[8] = 50° C., 100% RH, storage 4 weeks
[9] = 35° C., 10% RH, storage 4 weeks
[10] = 50° C., 10% RH, storage 4 weeks
[11] = 35° C./10% RH, 1 w, listed as Polymorph F
[12] = 35° C./10% RH, 4 w, listed as Polymorph F
[13] = 50° C./10% RH, 1 w, listed as Polymorph F
[14] = 50° C./10% RH, 4 w, listed as Polymorph F
[15] = RT/10% RH, 1 w, listed as Polymorph F
[16] = RT/10% RH, 4 w, listed as Polymorph F

## C[C@H](O)C(=O)C1=Nc2c(nc(N)[nH]c2=O)NC1 [Form D, sepiapterin]
[1]; [5]
  Form change: No
[1]; [6]
  Form change: No
[1]; [7]
  Form change: No
[1]; [8]
  Form change: No
[1]; RT, 100% RH, storage 1 week
  Form change: No
[1]; RT, 100% RH, storage 4 weeks
  Form change: No
[2]
  physical form stability to grinding and sieving: potential instability
[3]; [5]
  % of Initial: 99.7%
  Purity (area %): 98.8 area %
[3]; [6]
  % of Initial: 99.6%
  Purity (area %): 98.7 area %
[3]; [7]
  % of Initial: 99.3%
  Purity (area %): 98.5 area %
[3]; [8]
  % of Initial: 98.5%
  Purity (area %): 97.7 area %
[3]; RT, 100% RH, storage 1 week
  % of Initial: 99.9%
  Purity (area %): 99.0 area %
[3]; RT, 100% RH, storage 4 weeks
  % of Initial: 99.8%
  Purity (area %): 98.9 area %
[4]; 35° C./100% RH, 1 w
  Impurity RRT 0.62: <0.05
  Impurity RRT 0.95: 0.86
  Impurity RRT 1.08: 0.14
  Impurity RRT 1.17: 0.17
  Sepiapterin RRT 1.00 (amount of sepiapterin): 98.83%
[4]; 35° C./100% RH, 4 w
  Impurity RRT 0.62: 0.09
  Impurity RRT 0.95: 1.04
  Impurity RRT 1.08: <0.05
  Impurity RRT 1.17: 0.17
  Sepiapterin RRT 1.00 (amount of sepiapterin): 98.70%
[4]; 50° C./100% RH, 1 w
  Impurity RRT 0.62: 0.08
  Impurity RRT 0.95: 1.05
  Impurity RRT 1.08: 0.26
  Impurity RRT 1.17: 0.16
  Sepiapterin RRT 1.00 (amount of sepiapterin): 98.45%
[4]; 50° C./100% RH, 4 w
  Impurity RRT 0.62: 0.14
  Impurity RRT 0.95: 2.03
  Impurity RRT 1.08: <0.05
  Impurity RRT 1.17: 0.18
  Sepiapterin RRT 1.00 (amount of sepiapterin): 97.65%
[4]; Initial
  Impurity RRT 1.08: <0.05
  Impurity RRT 1.17: 0.17
[4]; Initial, listed as Polymorph D
  Impurity RRT 0.62: <0.05
  Impurity RRT 0.95: 0.69
  Sepiapterin RRT 1.00 (amount of sepiapterin): 99.14%
[4]; Initial, listed as polymorph D
  Sepiapterin RRT 1.00 (amount of sepiapterin): 99.14%
[4]; RT/100% RH, 1 w
  Impurity RRT 0.62: <0.05
  Impurity RRT 0.95: 0.83
  Impurity RRT 1.08: <0.05
  Impurity RRT 1.17: 0.16
  Sepiapterin RRT 1.00 (amount of sepiapterin): 99.01%
[4]; RT/100% RH, 4 w
  Impurity RRT 0.62: 0.09
  Impurity RRT 0.95: 0.81
  Impurity RRT 1.08: <0.05
  Impurity RRT 1.17: 0.17
  Sepiapterin RRT 1.00 (amount of sepiapterin): 98.92%
[4]
  stability compared with polymorph A (in words): significantly greater stability

## C[C@H](O)C(=O)C1=Nc2c(nc(N)[nH]c2=O)NC1 [Form F, sepiapterin]
[1]; 35° C., 10% RH, storage 1 week
  Form change: No
[1]; [9]
  Form change: No
[1]; 50° C., 10% RH, storage 1 week
  Form change: No
[1]; [10]
  Form change: No
[1]; RT, 10% RH, storage 1 week
  Form change: No
[1]; RT, 10% RH, storage 4 weeks
  Form change: No
[2]
  physical form stability to grinding and sieving: confirms the stability
[3]; 35° C., 10% RH, storage 1 week
  % of Initial: 99.7%
  Purity (area %): 99.4 area %
[3]; [9]
  % of Initial: 99.7%
  Purity (area %): 99.4 area %
[3]; 50° C., 10% RH, storage 1 week
  % of Initial: 99.4%
  Purity (area %): 99.2 area %
[3]; [10]
  % of Initial: 99.1%
  Purity (area %): 98.9 area %
[3]; RT, 10% RH, storage 1 week
  % of Initial: 99.7%
  Purity (area %): 99.4 area %
[3]; RT, 10% RH, storage 4 weeks
  % of Initial: 99.8%
  Purity (area %): 99.5 area %
[4]; 35° C./10% RH, 1 w
  Impurity RRT 0.60: <0.05
[4]; [11]
  Impurity RRT 0.95: 0.35
  Impurity RRT 1.08: 0.06
  Impurity RRT 1.17: 0.15
  Sepiapterin RRT 1.00 (amount of sepiapterin): 99.43%
[4]; 35° C./10% RH, 4 w
  Impurity RRT 0.60: <0.05
  Impurity RRT 1.08: <0.05
[4]; [12]
  Impurity RRT 0.95: 0.42
  Impurity RRT 1.17: 0.15
  Sepiapterin RRT 1.00 (amount of sepiapterin): 99.43%
[4]; 50° C./10% RH, 1 w
  Impurity RRT 0.60: <0.05
[4]; [13]
  Impurity RRT 0.95: 0.58
  Impurity RRT 1.08: 0.11
  Impurity RRT 1.17: 0.15
  Sepiapterin RRT 1.00 (amount of sepiapterin): 99.15%
[4]; 50° C./10% RH, 4 w
  Impurity RRT 0.60: 0.12
  Impurity RRT 1.17: 0.17
[4]; [14]
  Impurity RRT 0.95: 0.86
  Impurity RRT 1.08: <0.05
  Sepiapterin RRT 1.00 (amount of sepiapterin): 98.85%
[4]; 50° C./10% RH, 4 w, listed as polymorph F
  Sepiapterin RRT 1.00 (amount of sepiapterin): 98.85%
[4]; Initial
  Impurity RRT 0.60: <0.05
  Impurity RRT 1.08: <0.05
  Impurity RRT 1.17: 0.17
[4]; Initial, listed as Polymorph F
  Impurity RRT 0.95: 0.09
  Sepiapterin RRT 1.00 (amount of sepiapterin): 99.74%
[4]; Initial, listed as polymorph F
  Sepiapterin RRT 1.00 (amount of sepiapterin): 99.74%
[4]; RT/10% RH, 1 w
  Impurity RRT 0.60: <0.05
  Impurity RRT 1.17: 0.16
[4]; [15]
  Impurity RRT 0.95: 0.29
  Impurity RRT 1.08: 0.14
  Sepiapterin RRT 1.00 (amount of sepiapterin): 99.42%
[4]; RT/10% RH, 4 w
  Impurity RRT 0.60: <0.05
  Impurity RRT 1.08: <0.05
  Impurity RRT 1.17: 0.16
[4]; [16]
  Impurity RRT 0.95: 0.30
  Sepiapterin RRT 1.00 (amount of sepiapterin): 99.54%
[4]
  stability compared with polymorph A (in words): significantly greater stability
